Results taken from patent US20080267882A1, “Imaging compounds, methods of making imaging compounds, methods of imaging, therapeutic compounds, methods of making therapeutic compounds, and methods of therapy” (Stanford University, priority 2007, published 2008).
“And” between values parts separate entries of the source, which are not always exact repeats. Equal entries are not always repeated. Where two headings read alike, the source gives them in different places.

Columns and labels:
[1] = in vivo; settings: mouse, iv, 3.7 MBq, total radioactivity, U87MG tumor uptake
Experimental: PET scans and image analysis were performed using a microPET R4 rodent model scanner (Siemens Medical Solutions) as previously reported (J Nucl Med 2006;47:113-121 and J Nucl Med 2005;46:1707-1718, each of which is incorporated herein by reference for the corresponding discussion). Each mouse was tail-vein injected with about 3.7 MBq (100 μCi) of ^18F-FPRGD2 under isoflurane anesthesia. The 30-min dynamic scan (1×30 s, 4×1 min, 1×1.5 min, 4×2 min, 1×2.5 min, 4×3 min, total of 15 frames) was started 1 min after injection. Five min static PET images were also acquired at 1 h and 2 h post-injection (p.i.). The images were reconstructed by a 2-dimensional ordered-subsets expectation maximum (OSEM) algorithm and no correction was applied for attenuation or scatter.
PET scans and image analysis were performed using a microPET R4 rodent model scanner (Siemens Medical Solutions) as previously reported. For U87MG tumor model, mice (n=3) were tail-vein injected with about 3.7 MBq (100 μCi) of ^18F-FPRGD4 under isoflurane anesthesia and then subjected to a 30-min dynamic scan (1×30 s, 4×1 min, 1×1.5 min, 4×2 min, 1×2.5 min, 4×3 min, total of 15 frames) starting from 1 min p.i. Five min static PET images were also acquired at 1, 2, and 3 h p.i. The images were reconstructed by 2-dimensional ordered-subsets expectation maximum (OSEM) algorithm. No attenuation or scatter correction was applied. […] The 5-min static PET scans was then acquired at 30 min and 1 h p.i. Multiple time point static scans were also obtained for orthotopic MDA-MB-435, c-neu oncomouse, and subcutaneous DU145 tumor models after tail-vein injected with 3.7 MBq of ^18F-FPRGD4.
For each microPET scan, regions of interest (ROIs) were drawn over the tumor, normal tissue, and major organs by using vendor software (ASI Pro 5.2.4.0) on decay-corrected whole-body coronal images. The maximum radioactivity concentration (accumulation) within a tumor or an organ was obtained from mean pixel values within the multiple ROI volume, which were converted to counts/mL/min by using a conversion factor. Assuming a tissue density of 1 g/mL, the ROIs were converted to counts/g/min and then divided by the administered activity to obtain an imaging ROI-derived % ID/g. […]
PET scans and image analysis were performed using a microPET R4 rodent model scanner (Siemens Medical Solutions) as previously reported (J Nucl Med. 2005;46:1707-1718 and J Nucl Med. 2006;47:113-121, each of which is incorporated herein by reference for the corresponding discussion). About 9.3 MBq of ^64Cu-DOTA-RGD multimer was intravenously injected into each mouse under isoflurane anesthesia. Five minute static scans were acquired at 30 min, 1 h, 2 h, 6 h, and 20 h p.i. The images were reconstructed by a 2-dimensional ordered-subsets expectation maximum (OSEM) algorithm and no correction was applied for attenuation and scatter. For each microPET scan, regions of interest (ROIs) were drawn over the tumor, normal tissue, and major organs on decay-corrected whole-body coronal images. The radioactivity concentration (accumulation) within a tumor was obtained from the maximum value within the multiple ROIs and then converted to % ID/g.
PET scans and image analysis were performed using a microPET R4 rodent model scanner (Siemens Medical Solutions) as previously reported (J Nucl Med. 2006;47:113-21 and J Nucl Med. 2005;46:1707-18, which is incorporated herein by reference for the corresponding discussion). […] The 60-min dynamic scan (5×1 min, 10×3 min, 5×5 min, total of 20 frames) was started 1 min after injection. A 2 h time point static scan was also acquired after the 60 min dynamic scan. Five min static PET images were also acquired separately at 30 min, 1 h and 2 h time points post-injection (p.i.) for another set of tumor-bearing mice (n=3/tracer). The images were reconstructed by a 2-dimensional ordered-subsets expectation maximum (OSEM) algorithm and no correction was necessary for attenuation or scatter correction. […]

[2] = biological target: T1, integrin αvβ3 (Homo sapiens, UniProt P05106+P06756); assay: competitive cell binding assay using ^125I-echistatin on U87MG cells; settings: for IC50: n=3, read-out: IC50 (inhibition of ^125I-echistatin binding to U87MG cells)
T1 construct: evaluated using U87MG cells (integrin αvβ3-positive); endogenous in cells; host or cells: U87MG human glioblastoma cells (ATCC)
Experimental: Experiments were performed on U87MG human glioblastoma cells with triplicate samples as previously reported.
In vitro integrin αvβ3-binding affinities and specificities of RGD4, PRGD4 and FPRGD4 were assessed via displacement cell binding assays using ^125I-echistatin as the integrin αvβ3-specific radioligand. Experiments were performed on U87MG human glioblastoma cells by the method previously described (J Nucl Med. 2005;46:1707-1718 J Nucl Med. 2006;47:1172-1180, which is incorporated herein by reference for the corresponding discussion). […] Experiments were performed with triplicate samples.
Experiments were performed with triplicate samples.
In vitro integrin-binding affinity and specificity of RGD multimers and DOTA-RGD multimers were assessed via competitive cell binding assays using ^125I-echistatin as the integrin αvβ3-specific radioligand (J Nucl Med. 2005;46:1707-1718, which is incorporated herein by reference for the corresponding discussion). […] Experiments were performed with triplicate samples.

[3] = tested on: MDA-MB-435 tumor-bearing mice; assay: biodistribution of ^3H-PTX and ^3H-RGD2−PTX in MDA-MB-435 tumor-bearing mice; assay type: in vivo, mouse
Experimental: All animal experiments were performed in compliance with the guidelines for the care and use of research animals established by the Stanford University's Animal Studies Committee. Female athymic nude mice (nu/nu) were obtained from Harlan (Indianapolis, Ind.) at 6-8 weeks of age and were kept under sterile conditions. The MDA-MB-435 cells were harvested and suspended in sterile PBS at a concentration of 5×10^7 cells/mL. Viable cells (5×10^6) in PBS (100 μL) were injected orthotopically in the right mammary fat pad. […] Tumor growth was followed by caliper measurements of perpendicular measures of the tumor. The tumor volume was estimated by the formula: tumor volume=a×(b^2)/2, where a and b are the tumor length and width respectively in mm.
The animals were euthanized at 4, 24 and 48 h post injection and major organs and tissues were collected correspondingly. Approximately 100 mg of the tissue was added to glass scintillation vials containing 1 mL of tissue solubilizer SoluEne®-350 (Perkin-Elmer, Waltham, Mass.). These samples were digested at 55° C. for overnight followed by bleaching to obtain the decolorized samples. Chemiluminescence was reduced by the addition of glacial acetic acid. Hionic-Fluor liquid scintillation cocktail (Perkin-Elmer) was added to all samples, which were then counted with a Tri-Carb 2800TR liquid scintillation Analyzer (Perkin-Elmer).

N=C(N)NCCC[C@@H]1NC(=O)[C@H](CCCCNC(=O)CC[C@H](NC(=O)CC[C@H](NC(=S)Nc2ccc(C[C@H]3CN(CC(=O)O)CCN(CC(=O)O)CCN3CC(=O)O)cc2)C(=O)N[C@@H](CCC(=O)NCCCC[C@@H]2NC(=O)[C@@H](Cc3ccc(O)cc3)NC(=O)[C@H](CC(=O)O)NC(=O)CNC(=O)[C@H](CCCNC(=N)N)NC2=O)C(=O)NCCCC[C@@H]2NC(=O)[C@@H](Cc3ccc(O)cc3)NC(=O)[C@H](CC(=O)O)NC(=O)CNC(=O)[C@H](CCCNC(=N)N)NC2=O)C(=O)NCCCC[C@@H]2NC(=O)[C@@H](Cc3ccc(O)cc3)NC(=O)[C@H](CC(=O)O)NC(=O)CNC(=O)[C@H](CCCNC(=N)N)NC2=O)NC(=O)[C@@H](Cc2ccc(O)cc2)NC(=O)[C@H](CC(=O)O)NC(=O)CNC1=O [^68Ga-NOTA-RGD4, metal not drawn]
tissue uptake at 0.5 h ([1]; athymic nude): 3.4 ± 0.1 %ID/g
tissue uptake at 1 h ([1]; athymic nude): 2.8 ± 0.1 %ID/g
tissue uptake at 2 h ([1]; athymic nude): 2 ± 0.2 %ID/g
tissue uptake at 5 min ([1]; nude): 4.9 %ID/g
tissue uptake at 0.25 h ([1]; nude): 4.08 %ID/g
tissue uptake at 0.5 h ([1]; nude): 3.48 %ID/g
tissue uptake at 1 h ([1]; nude): 2.86 %ID/g
tissue uptake at 2 h ([1]; nude): 2.13 %ID/g

N=C(N)NCCC[C@@H]1NC(=O)[C@H](CCCCNC(=O)CC[C@H](NC(=O)CC[C@H](NC(=S)Nc2ccc(C[C@H]3CN(CC(=O)O)CCN(CC(=O)O)CCN3CC(=O)O)cc2)C(=O)N[C@@H](CCC(=O)NCCCC[C@@H]2NC(=O)[C@@H](Cc3ccc(O)cc3)NC(=O)[C@H](CC(=O)O)NC(=O)CNC(=O)[C@H](CCCNC(=N)N)NC2=O)C(=O)NCCCC[C@@H]2NC(=O)[C@@H](Cc3ccc(O)cc3)NC(=O)[C@H](CC(=O)O)NC(=O)CNC(=O)[C@H](CCCNC(=N)N)NC2=O)C(=O)NCCCC[C@@H]2NC(=O)[C@@H](Cc3ccc(O)cc3)NC(=O)[C@H](CC(=O)O)NC(=O)CNC(=O)[C@H](CCCNC(=N)N)NC2=O)NC(=O)[C@@H](Cc2ccc(O)cc2)NC(=O)[C@H](CC(=O)O)NC(=O)CNC1=O [NOTA-RGD4, NOTA-E{E[c(RGDyK)]2}2]
fold higher integrin αvβ3 affinity than NOTA-RGD1 ([2]; Example 5): 13 fold
fold increase of integrin avidity compared to NOTA-RGD2 ([2]; Example 5): 3 fold
IC50 ([2]; Example 5): 16.1 ± 3.1 nM

CC(=O)O[C@H]1C(=O)[C@@]2(C)[C@H]([C@H](OC(=O)c3ccccc3)[C@]3(O)C[C@H](OC(=O)[C@H](O)[C@@H](NC(=O)c4ccccc4)c4ccccc4)C(C)=C1C3(C)C)[C@]1(OC(C)=O)CO[C@@H]1C[C@@H]2O [^3H-PTX, reference compound]
tissue concentration, Blood ([3]; 4 h): 67.1 ± 9.8 ng/g
tissue concentration, Intestine ([3]; 4 h): 274.1 ± 110.1 ng/g
tissue concentration, Kidney ([3]; 4 h): 339.6 ± 67.6 ng/g
tissue concentration, Liver ([3]; 4 h): 2389.3 ± 408.8 ng/g
tissue concentration, Lung ([3]; 4 h): 329.2 ± 18.2 ng/g
tissue concentration, MDA-MB-435 tumor ([3]; 4 h): 239.0 ± 56.2 ng/g
tissue concentration, Muscle ([3]; 4 h): 257.3 ± 32.2 ng/g
tissue concentration, Skin ([3]; 4 h): 135.1 ± 23.5 ng/g
tissue concentration, Spleen ([3]; 4 h): 365.5 ± 118.5 ng/g
tissue concentration, Stomach ([3]; 4 h): 180.7 ± 15.7 ng/g
tissue concentration, Blood ([3]; 24 h): 42.7 ± 14.7 ng/g
tissue concentration, Intestine ([3]; 24 h): 14.4 ± 2.5 ng/g
tissue concentration, Kidney ([3]; 24 h): 38.0 ± 13.3 ng/g
tissue concentration, Liver ([3]; 24 h): 123.4 ± 12.2 ng/g
tissue concentration, Lung ([3]; 24 h): 35.2 ± 5.4 ng/g
tissue concentration, MDA-MB-435 tumor ([3]; 24 h): 85.6 ± 15.2 ng/g
tissue concentration, Muscle ([3]; 24 h): 41.1 ± 17.2 ng/g
tissue concentration, Skin ([3]; 24 h): 24.6 ± 3.2 ng/g
tissue concentration, Spleen ([3]; 24 h): 51.6 ± 7.6 ng/g
tissue concentration, Stomach ([3]; 24 h): 24.4 ± 4.7 ng/g
decrease of concentration in the tumor ([3]; 24 h compared with 4 h): around 3 fold
drop of concentration in kidneys ([3]; 24 h compared with 4 h): 9 fold
drop of concentration in the liver ([3]; 24 h compared with 4 h): 20 fold
tissue concentration, Blood ([3]; 48 h): 35.0 ± 1.5 ng/g
tissue concentration, Intestine ([3]; 48 h): 12.8 ± 7.0 ng/g
tissue concentration, Kidney ([3]; 48 h): 35.7 ± 2.0 ng/g
tissue concentration, Liver ([3]; 48 h): 132.6 ± 31.9 ng/g
tissue concentration, Lung ([3]; 48 h): 47.9 ± 8.8 ng/g
tissue concentration, MDA-MB-435 tumor ([3]; 48 h): 45.8 ± 1.69 ng/g and 45.8 ± 1.7 ng/g
tissue concentration, Muscle ([3]; 48 h): 35.4 ± 10.7 ng/g
tissue concentration, Skin ([3]; 48 h): 25.4 ± 9.3 ng/g
tissue concentration, Spleen ([3]; 48 h): 36.4 ± 8.4 ng/g
tissue concentration, Stomach ([3]; 48 h): 17.2 ± 4.0 ng/g
decrease of concentration in the tumor ([3]; 48 h compared with 4 h): 5.2 fold

N=C(N)NCCC[C@@H]1NC(=O)[C@H](CCCCNC(=O)CC[C@H](NC(=O)CC[C@H](NC(=O)CN2CCN(CC(=O)O)CCN(CC(=O)O)CCN(CC(=O)O)CC2)C(=O)N[C@@H](CCC(=O)NCCCC[C@@H]2NC(=O)[C@@H](Cc3ccc(O)cc3)NC(=O)[C@H](CC(=O)O)NC(=O)CNC(=O)[C@H](CCCNC(=N)N)NC2=O)C(=O)NCCCC[C@@H]2NC(=O)[C@@H](Cc3ccc(O)cc3)NC(=O)[C@H](CC(=O)O)NC(=O)CNC(=O)[C@H](CCCNC(=N)N)NC2=O)C(=O)NCCCC[C@@H]2NC(=O)[C@@H](Cc3ccc(O)cc3)NC(=O)[C@H](CC(=O)O)NC(=O)CNC(=O)[C@H](CCCNC(=N)N)NC2=O)NC(=O)[C@@H](Cc2ccc(O)cc2)NC(=O)[C@H](CC(=O)O)NC(=O)CNC1=O [DOTA-RGD tetramer]
IC50 ([2]; Example 4): 28 nM
